According to US20260217732A1, “WRN INHIBITOR” (SUZHOU PUHE BIOPHARMA CO., LTD., priority 2022, published 2026):
Where two headings read alike, the source gives them in different places. One block for each molecule: values may come before it.

What was measured:
[1] = system: SW48 colorectal cancer cells; assay: 2D antiproliferation on MSI-H SW48 cells, CTG, 5 days; format: cell-based; details: for IC50 / inhibition at 38.15 pM / inhibition at 0.000152588 µM / inhibition at 0.000610352 µM / inhibition at 0.00244141 µM / inhibition at 0.00976562 µM / inhibition at 0.0390625 µM / inhibition at 0.15625 µM / inhibition at 0.625 µM / inhibition at […] / inhibition at 10 µM: Homo sapiens; for IC50: 120 h, SW48 MSI-H, 5 days; for inhibition at 38.15 pM: SW48, 0.038146973 nM; for inhibition at 0.000152588 µM: SW48, 0.152587891 nM; for inhibition at 0.000610352 µM: SW48, 0.610351563 nM; for inhibition at 0.00244141 µM: SW48, 2.44140625 nM; for inhibition at 0.00976562 µM: SW48, 9.765625 nM; for inhibition at 0.0390625 µM: SW48, 39.0625 nM; for inhibition at 0.15625 µM: SW48, 156.25 nM; for inhibition at 0.625 µM: SW48, 625 nM; for inhibition at […]: SW48, 2500 nM; for inhibition at 10 µM: SW48, 10000 nM
Procedure: The molecules of the present disclosure were tested for their anti-proliferative activity on MSI-H tumor cells.
SW48 colorectal cancer cells with MSI were cultured in a RMI1640 medium containing 10% FBS and 1% penicillin-streptomycin, and the mixture was cultured in a 37° C., 5% CO2 incubator. 40 μL of cell suspension was added to each well of a 384-well microplate. […] of compounds with different concentrations were added to each well using Echo, and the mixtures were cultured in a 37° C., 5% CO2 incubator for 5 days. 40 μL of CTG solution (Promega, Cat No. G7573) was added to each well and incubated in a 37° C., 5% CO2 incubator in the dark for 30 minutes. The luminescence value was read using an Envision multi-function microplate reader (Perkin Elmer, catalog number Envision 2104). The optical signal is proportional to the amount of ATP in the system, while the ATP content directly characterizes the number of viable cells in the system.

[2] = system: HT-29 colorectal cancer cells; assay: 2D antiproliferation on MSS HT-29 cells, CTG, 5 days; format: cell-based; details: Homo sapiens, 120 h, HT-29 MSS
Procedure: The molecules of the invention were tested for their anti-proliferative activities on MSS tumor cells.
HT-29 colorectal cancer cells with MSS were cultured in a McCoy's 5A medium containing 10% FBS and 1% penicillin-streptomycin in a 37° C., 5% CO2 constant temperature incubator. 40 μL of cell suspension was added to each well of a 384-well microplate. […] of compounds with different concentrations were added to each well using Echo. The mixtures were cultured in a 37° C., 5% CO2 constant temperature incubator for 5 days. 40 μL of CTG solution (Promega, Cat No. G7573) was added to each well, and the mixture was incubated in a 37° C., 5% CO2 constant temperature incubator for 30 minutes in the dark. The luminescence value was read using an Envision multi-function microplate reader (Perkin Elmer, catalog number Envision 2104). The optical signal is proportional to the amount of ATP in the system, while the ATP content directly characterizes the number of viable cells in the system.

[3] = read-out: Average Value/Inhibition Rate
[4] = read-out: Test 1/Inhibition Rate
[5] = read-out: Test 2/Inhibition Rate

IC50 [1]: 848 nM
SMILES: CCc1c(N2CCN(C(=O)c3cc(C)ncn3)CC2)c(=O)n2nc(-c3cc4c(s3)COC4)nc2n1CC(=O)Nc1ccc(C(F)(F)F)cc1Cl [A2]

IC50 [1]: 2000 nM
SMILES: CCc1c(N2CCN(C(=O)c3ncnc(C)c3O)CC2)c(=O)n2nc(-c3ccc(=O)n(C)c3)nc2n1CC(=O)Nc1ccc(C(F)(F)F)cc1Cl [A3, reference compound]

IC50 [2]: > 10 µM
IC50 [1]: 2060 nM
SMILES: CCc1c(N2CCN(C(=O)c3ncccc3O)CC2)c(=O)n2nc(C3=CCS(=O)(=O)CC3)nc2n1CC(=O)Nc1ccc(C(F)(F)F)cc1Cl [P6]

IC50 [2]: > 10 µM
IC50 [1]: 82 nM
SMILES: CCc1c(N2CCN(C(=O)c3ncnc(C)c3O)CC2)c(=O)n2nc(-c3cc4cn[nH]c4s3)nc2n1CC(=O)Nc1ccc(C(F)(F)F)cc1Cl [P19]
inhibitory activity on SW48 cells ([1]; 39 nM): high inhibitory activity
inhibition at 38.15 pM [1, 3]: -0.502%
inhibition at 38.15 pM [1, 4]: 2.13%
inhibition at 38.15 pM [1, 5]: -3.13%
inhibition at 0.000152588 µM [1, 3]: -1.21%
inhibition at 0.000152588 µM [1, 4]: -2.38%
inhibition at 0.000152588 µM [1, 5]: -0.0356%
inhibition at 0.000610352 µM [1, 3]: 2.86%
inhibition at 0.000610352 µM [1, 4]: 3.47%
inhibition at 0.000610352 µM [1, 5]: 2.26%
inhibition at 0.00244141 µM [1, 3]: -3.38%
inhibition at 0.00244141 µM [1, 4]: -2.94%
inhibition at 0.00244141 µM [1, 5]: -3.82%
inhibition at 0.00976562 µM [1, 3]: -3.51%
inhibition at 0.00976562 µM [1, 4]: -1.53%
inhibition at 0.00976562 µM [1, 5]: -5.5%
inhibition at 0.0390625 µM [1, 3]: 1.51%
inhibition at 0.0390625 µM [1, 4]: 3.47%
inhibition at 0.0390625 µM [1, 5]: -0.452%
inhibition at 0.15625 µM [1, 3]: 95.5%
inhibition at 0.15625 µM [1, 4]: 96%
inhibition at 0.15625 µM [1, 5]: 95%
inhibition at 0.625 µM [1, 3]: 97.6%
inhibition at 0.625 µM [1, 4]: 96.9%
inhibition at 0.625 µM [1, 5]: 98.4%
inhibition at […] [1, 3]: 98.6%
inhibition at […] [1, 4]: 99.4%
inhibition at […] [1, 5]: 97.8%
inhibition at 10 µM [1, 3]: 102%
inhibition at 10 µM [1, 4]: 103%
inhibition at 10 µM [1, 5]: 102%

IC50 [2]: > 10 µM
IC50 [1]: 41 nM
SMILES: CCc1c(N2CCN(C(=O)c3ncnc(C)c3O)CC2)c(=O)n2nc(-c3cc4c(s3)COC4)nc2n1CC(=O)Nc1ccc(Cl)cc1Cl [P26]

IC50 [2]: > 10 µM
IC50 [1]: 46 nM
SMILES: CCc1ccc(NC(=O)Cn2c(CC)c(N3CCN(C(=O)c4ncnc(C)c4O)CC3)c(=O)n3nc(-c4cc5c(s4)COC5)nc23)c(C)c1 [P27]

IC50 [2]: > 10 µM
IC50 [1]: 136 nM
SMILES: CCc1c(N2CCN(C(=O)c3ncccc3O)CC2)c(=O)n2nc(-c3cc4c(s3)COC4)nc2n1CC(=O)Nc1ccc(C(F)(F)F)cc1 [P28]

IC50 [2]: > 10 µM
IC50 [1]: 33 nM
SMILES: CCc1c(N2CCN(C(=O)c3ncnc(C)c3O)CC2)c(=O)n2nc(-c3cc4c(s3)COC4)nc2n1CC(=O)Nc1ccc(C(F)(F)F)c(F)c1C [P30]

IC50 [2]: > 10 µM
IC50 [1]: 49 nM
SMILES: CCc1c(N2CCN(C(=O)c3ncnc(C)c3O)CC2)c(=O)n2nc(-c3cc4c(s3)COC4)nc2n1CC(=O)Nc1cc(F)c(C(F)(F)F)cc1C [P31]

IC50 [2]: > 10 µM
IC50 [1]: 142 nM
SMILES: CCc1c(N2CCN(C(=O)c3ncnc(C)c3O)CC2)c(=O)n2nc(-c3sc(CO)nc3C)nc2n1CC(=O)Nc1ccc(C(F)(F)F)cc1Cl [P34]

IC50 [2]: > 10 µM
IC50 [1]: 199 nM
SMILES: CCc1c(N2CCN(C(=O)c3ncnc(C)c3O)CC2)c(=O)n2nc(-c3cnc(CO)s3)nc2n1CC(=O)Nc1ccc(C(F)(F)F)cc1Cl [P35]

IC50 [2]: > 10 µM
IC50 [1]: 561 nM
SMILES: CCc1c(N2CCN(C(=O)c3ncnc(C)c3O)CC2)c(=O)n2nc(-c3cnc(CO)s3)nc2n1CC(=O)Nc1ccc(C(F)(F)F)c2ccsc12 [P36]

IC50 [2]: > 10 µM
IC50 [1]: 46 nM
SMILES: CCc1c(N2CCN(C(=O)c3ncnc(C)c3O)CC2)c(=O)n2nc(-c3ccn4nccc4c3)nc2n1CC(=O)Nc1ccc(C(F)(F)F)cc1Cl [P37]

IC50 [2]: > 10 µM
IC50 [1]: 82 nM
SMILES: CCc1c(N2CCN(C(=O)c3ncnc(C)c3O)CC2)c(=O)n2nc(-c3ccc4nccn4c3)nc2n1CC(=O)Nc1ccc(C(F)(F)F)cc1Cl [P38]

IC50 [2]: > 10 µM
IC50 [1]: > 10000 nM
SMILES: CCc1c(N2CCN(C(=O)c3ncnc(C)c3O)CC2)c(=O)n2nc(-c3ccc4nncn4c3)nc2n1CC(=O)Nc1ccc(C(F)(F)F)cc1Cl [P39]

IC50 [1]: 113 nM
SMILES: CCc1c(N2CCN(C(=O)c3ncnc(C)c3O)CC2)c(=O)n2nc(-c3cc4c(s3)COCC4)nc2n1CC(=O)Nc1ccc(C(F)(F)F)cc1Cl [P40]

IC50 [2]: 5.59 µM
IC50 [1]: 2080 nM
SMILES: CCc1c(N2CCN(C(=O)c3ncccc3O)CC2)c(=O)n2nc(-c3c[nH]c4ncncc34)nc2n1CC(=O)Nc1ccc(C(F)(F)F)cc1Cl [P41]

IC50 [2]: > 10 µM
IC50 [1]: 620 nM
SMILES: CCc1c(N2CCN(C(=O)c3ncnc(C)c3O)CC2)c(=O)n2nc(-c3cc4cncnc4s3)nc2n1CC(=O)Nc1ccc(C(F)(F)F)cc1Cl [P42]

IC50 [1]: 593 nM
SMILES: CCc1c(N2CCN(C(=O)c3ncnc(C)c3O)CC2)c(=O)n2nc(-c3ncc(CO)s3)nc2n1CC(=O)Nc1ccc(C(F)(F)F)cc1Cl [P43]

IC50 [2]: > 10 µM
IC50 [1]: > 10000 nM
SMILES: CCc1c(N2CCN(C(=O)c3ncnc(C)c3O)CC2)c(=O)n2nc(-c3cc4cncnc4[nH]3)nc2n1CC(=O)Nc1ccc(C(F)(F)F)cc1Cl [P44]

IC50 [2]: > 10 µM
IC50 [1]: 54 nM
SMILES: CCc1c(N2CCN(C(=O)c3ncnc(C)c3O)CC2)c(=O)n2nc(-c3cc4n(c3)CCOC4)nc2n1CC(=O)Nc1ccc(C(F)(F)F)cc1Cl [P45]

IC50 [2]: > 10 µM
IC50 [1]: 452 nM
SMILES: CCc1c(N2CCN(C(=O)c3ncnc(C)c3O)CC2)c(=O)n2nc(-c3ccc4nccn4c3)nc2n1CC(=O)Nc1ccc(C(F)(F)F)cc1F [P46]

IC50 [1]: 32 nM
SMILES: CCc1c(N2CCN(C(=O)c3ncnc(C)c3O)CC2)c(=O)n2nc(-c3ccn4nccc4c3)nc2n1CC(=O)Nc1ccc(C(F)(F)F)cc1C [P48]

IC50 [1]: 574 nM
SMILES: CCc1c(N2CCN(C(=O)c3ncnc(C)c3O)CC2)c(=O)n2nc(-c3cnn(S(C)(=O)=O)c3)nc2n1CC(=O)Nc1ccc(C(F)(F)F)cc1Cl [P49]

IC50 [1]: 242 nM
SMILES: CCc1c(N2CCN(C(=O)c3ncnc(C)c3O)CC2)c(=O)n2nc(-c3cc4cn[nH]c4s3)nc2n1CC(=O)Nc1ccc(C(F)(F)F)cc1F [P51]

SMILES: CCc1c(N2CC3CC(C2)N3C(=O)c2ncnc(C)c2O)c(=O)n2nc(-c3cc4c(s3)COC4)nc2n1CC(=O)Nc1ccc(C(F)(F)F)cc1C [P54]
IC50 [1]: 2140 nM

IC50 [1]: 672 nM
SMILES: CCc1c(N2CCN(C(=O)c3ncnc(C)c3O)C3(CC3)C2)c(=O)n2nc(-c3cc4c(s3)COC4)nc2n1CC(=O)Nc1ccc(C(F)(F)F)cc1C [P55]

IC50 [1]: 36 nM
SMILES: CCc1c(N2CCN(C(=O)c3ncnc(C)c3O)CC2)c(=O)n2nc(-c3cc4c(s3)COC4)nc2n1CC(=O)Nc1ccc(C(F)(F)F)c2sccc12 [P56]

IC50 [1]: 8850 nM
SMILES: CCc1c(N2CCN(C(=O)c3ncnc(C)c3O)CC2)c(=O)n2nc(-c3cc4c(s3)COC4)nc2n1CC(=O)Nc1ccc(-c2cccnc2)cc1Cl [P61]

IC50 [1]: 530 nM
SMILES: CCc1c(N2CCN(C(=O)c3ncnc(C)c3O)CC2)c(=O)n2nc(-c3cn4cncc4s3)nc2n1CC(=O)Nc1ccc(C(F)(F)F)cc1C [P64]

IC50 [1]: 28 nM
SMILES: [2H]C([2H])([2H])c1ncnc(C(=O)N2CCN(c3c(CC)n(CC(=O)Nc4ccc(C(F)(F)F)cc4Cl)c4nc(-c5cc6c(s5)COC6)nn4c3=O)CC2)c1O [P68]

IC50 [1]: 34 nM
SMILES: [2H]C1([2H])N(C(=O)c2ncnc(C)c2O)C([2H])([2H])C([2H])([2H])N(c2c(CC)n(CC(=O)Nc3ccc(C(F)(F)F)cc3C)c3nc(-c4cc5c(s4)COC5)nn3c2=O)C1([2H])[2H] [P70]
